Results as given in PMC8385535 (Frontiers in Pharmacology, 2021).

Biological target: T1, IGPD (imidazole glycerol phosphate dehydratase) (Staphylococcus xylosus, UniProt A0A5R9B0J7)
T1 construct: gene hisB; recombinant, pET30a-hisB, E. coli host; His tag implied (coupled to Octet NTA sensor)
T1 sequence (A0A5R9B0J7 1-192): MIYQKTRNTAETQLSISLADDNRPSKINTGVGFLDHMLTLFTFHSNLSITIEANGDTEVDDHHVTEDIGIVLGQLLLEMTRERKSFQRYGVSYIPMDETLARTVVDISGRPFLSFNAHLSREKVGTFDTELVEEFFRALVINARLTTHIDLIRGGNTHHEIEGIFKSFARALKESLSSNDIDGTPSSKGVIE
Assay: bio-layer interferometry (Octet, IGPD on NTA tip)
Format: binding

SMILES: C[C@@H]1O[C@@H](OC[C@H]2O[C@@H](Oc3c(-c4ccc(O)c(O)c4)oc4cc(O)cc(O)c4c3=O)[C@H](O)[C@@H](O)[C@@H]2O)[C@H](O)[C@H](O)[C@H]1O [rutin]
- Kd: 1000 µM
